Assay [1] addresses T1, Serine/threonine-protein kinase ULK1 (Homo sapiens) (UniProt O75385).
T1 sequence (whole entry): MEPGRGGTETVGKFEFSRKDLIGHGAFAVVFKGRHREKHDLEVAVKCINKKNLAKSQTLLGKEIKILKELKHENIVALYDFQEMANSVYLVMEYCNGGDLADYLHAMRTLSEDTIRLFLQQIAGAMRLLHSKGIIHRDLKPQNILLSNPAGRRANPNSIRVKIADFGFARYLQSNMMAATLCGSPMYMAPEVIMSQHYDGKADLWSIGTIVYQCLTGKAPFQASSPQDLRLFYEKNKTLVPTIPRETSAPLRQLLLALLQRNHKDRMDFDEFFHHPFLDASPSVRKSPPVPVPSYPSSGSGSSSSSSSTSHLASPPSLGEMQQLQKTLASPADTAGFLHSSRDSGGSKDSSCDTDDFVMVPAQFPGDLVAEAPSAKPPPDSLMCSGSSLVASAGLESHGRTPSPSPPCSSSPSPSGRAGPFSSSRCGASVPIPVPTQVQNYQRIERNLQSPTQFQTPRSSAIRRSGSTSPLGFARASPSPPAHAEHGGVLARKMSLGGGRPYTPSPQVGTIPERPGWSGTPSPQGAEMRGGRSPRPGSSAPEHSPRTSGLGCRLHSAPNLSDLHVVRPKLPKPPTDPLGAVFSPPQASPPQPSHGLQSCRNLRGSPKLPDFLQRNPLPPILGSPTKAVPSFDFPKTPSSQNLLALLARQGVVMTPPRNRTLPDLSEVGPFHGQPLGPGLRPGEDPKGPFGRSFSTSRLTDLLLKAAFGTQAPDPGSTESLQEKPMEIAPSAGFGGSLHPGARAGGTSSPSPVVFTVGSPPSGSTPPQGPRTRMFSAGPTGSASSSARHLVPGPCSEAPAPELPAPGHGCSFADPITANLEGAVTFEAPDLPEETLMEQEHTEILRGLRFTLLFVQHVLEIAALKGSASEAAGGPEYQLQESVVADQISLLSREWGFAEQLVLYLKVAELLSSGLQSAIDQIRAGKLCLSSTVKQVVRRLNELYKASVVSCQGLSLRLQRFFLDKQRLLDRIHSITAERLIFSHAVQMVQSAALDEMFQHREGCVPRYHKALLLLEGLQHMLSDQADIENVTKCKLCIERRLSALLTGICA
In words: Inhibition of ULK1 Lys2 labeling site in human A-375 cells at 0.05 uM by KiNativ Profiling analysis relative to control. The class given is cell-based.

Assay [2] deals with Protein-tyrosine kinase 6 (Homo sapiens) (UniProt Q13882). In words: Inhibition of BRK (unknown origin) at 10 uM by Ambit Kinomescan binding assay relative to control.
The target of assay [3] is T2, Serine/threonine-protein kinase TAO1 (Homo sapiens) (UniProt Q7L7X3).
T2 sequence (whole entry): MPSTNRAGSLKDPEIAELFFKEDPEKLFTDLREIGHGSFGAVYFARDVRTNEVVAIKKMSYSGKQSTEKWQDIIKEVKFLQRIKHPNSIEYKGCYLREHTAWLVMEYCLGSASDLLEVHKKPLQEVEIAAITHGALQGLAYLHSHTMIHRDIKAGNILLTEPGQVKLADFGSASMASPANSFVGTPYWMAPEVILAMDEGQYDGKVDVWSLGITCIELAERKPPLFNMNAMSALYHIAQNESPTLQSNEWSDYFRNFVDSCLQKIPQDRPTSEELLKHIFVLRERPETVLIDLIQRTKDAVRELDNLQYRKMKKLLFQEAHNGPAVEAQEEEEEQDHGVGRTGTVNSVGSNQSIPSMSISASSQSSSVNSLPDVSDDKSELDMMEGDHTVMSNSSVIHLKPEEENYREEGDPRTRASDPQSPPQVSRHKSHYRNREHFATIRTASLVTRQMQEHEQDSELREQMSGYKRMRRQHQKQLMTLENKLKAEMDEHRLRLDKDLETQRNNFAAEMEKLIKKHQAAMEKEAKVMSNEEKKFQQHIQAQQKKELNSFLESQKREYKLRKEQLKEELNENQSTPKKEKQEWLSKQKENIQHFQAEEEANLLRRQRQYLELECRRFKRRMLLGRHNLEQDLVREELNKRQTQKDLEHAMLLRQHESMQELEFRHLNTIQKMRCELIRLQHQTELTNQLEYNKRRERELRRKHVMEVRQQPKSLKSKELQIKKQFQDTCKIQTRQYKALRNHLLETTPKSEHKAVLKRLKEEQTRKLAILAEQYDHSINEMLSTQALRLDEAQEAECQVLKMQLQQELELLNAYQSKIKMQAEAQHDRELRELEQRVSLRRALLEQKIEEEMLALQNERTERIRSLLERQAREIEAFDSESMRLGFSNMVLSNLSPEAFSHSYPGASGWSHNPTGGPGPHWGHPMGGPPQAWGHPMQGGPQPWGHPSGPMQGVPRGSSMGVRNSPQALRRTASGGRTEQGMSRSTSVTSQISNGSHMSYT
In words: Inhibition of TAOK1 (unknown origin) at 10 uM by Ambit Kinomescan binding assay relative to control; values are per cent of control.

Assay [4] has as its target Ephrin type-A receptor 3 (Homo sapiens) (UniProt P29320). In words: Inhibition of EPHA3 (unknown origin) at 10 uM by Ambit Kinomescan binding assay relative to control.
In assay [5] the target is Ribosomal protein S6 kinase alpha-1 (Homo sapiens) (UniProt Q15418). Description: Inhibition of C-terminal RPS6KA1 kinase domain 2 (unknown origin) at 10 uM by Ambit Kinomescan binding assay.
Assay [6] deals with Serine/threonine-protein kinase 38-like (Homo sapiens) (UniProt Q9Y2H1). In words: Inhibition of NDR2 (unknown origin) at 10 uM by Ambit Kinomescan binding assay relative to control.

Calls of active or inactive are those of the source. No cut-off for these calls is given here.

Chain of Serine/threonine-protein kinase 38-like (Homo sapiens) (Q9Y2H1 2-464 limits assumed): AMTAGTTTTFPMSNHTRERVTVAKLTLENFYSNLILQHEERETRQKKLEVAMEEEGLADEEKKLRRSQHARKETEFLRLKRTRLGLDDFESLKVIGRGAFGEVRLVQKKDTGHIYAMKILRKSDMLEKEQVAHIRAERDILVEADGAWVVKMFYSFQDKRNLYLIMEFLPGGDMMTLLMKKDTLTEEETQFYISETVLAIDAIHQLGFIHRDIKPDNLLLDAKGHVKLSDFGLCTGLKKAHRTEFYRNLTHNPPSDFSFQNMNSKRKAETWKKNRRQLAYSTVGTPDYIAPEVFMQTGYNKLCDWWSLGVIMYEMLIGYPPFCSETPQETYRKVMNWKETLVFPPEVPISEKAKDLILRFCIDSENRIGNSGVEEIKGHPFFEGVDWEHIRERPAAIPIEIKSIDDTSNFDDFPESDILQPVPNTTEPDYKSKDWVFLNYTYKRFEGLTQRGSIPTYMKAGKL
Chain of Ribosomal protein S6 kinase alpha-1 (Homo sapiens) (Q15418 whole entry, the tested form may be a part): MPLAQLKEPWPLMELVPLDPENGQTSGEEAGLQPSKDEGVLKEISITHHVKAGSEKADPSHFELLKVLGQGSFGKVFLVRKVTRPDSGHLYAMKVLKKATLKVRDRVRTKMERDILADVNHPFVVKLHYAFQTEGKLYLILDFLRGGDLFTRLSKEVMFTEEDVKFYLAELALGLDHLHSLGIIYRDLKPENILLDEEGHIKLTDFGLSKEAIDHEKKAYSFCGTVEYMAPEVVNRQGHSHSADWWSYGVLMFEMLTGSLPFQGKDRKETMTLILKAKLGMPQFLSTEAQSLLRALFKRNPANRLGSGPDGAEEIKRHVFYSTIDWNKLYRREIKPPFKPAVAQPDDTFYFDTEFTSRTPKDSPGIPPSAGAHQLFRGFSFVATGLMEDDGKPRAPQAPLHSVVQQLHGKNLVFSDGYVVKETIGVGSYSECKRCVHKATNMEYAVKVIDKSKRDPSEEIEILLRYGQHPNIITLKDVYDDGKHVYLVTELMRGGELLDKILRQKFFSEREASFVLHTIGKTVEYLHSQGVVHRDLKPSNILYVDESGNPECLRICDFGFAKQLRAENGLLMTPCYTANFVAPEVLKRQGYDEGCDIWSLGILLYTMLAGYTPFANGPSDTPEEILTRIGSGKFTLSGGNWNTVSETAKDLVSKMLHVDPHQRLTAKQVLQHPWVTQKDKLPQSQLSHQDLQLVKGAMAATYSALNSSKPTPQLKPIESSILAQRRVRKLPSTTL
Chain of Ephrin type-A receptor 3 (Homo sapiens) (P29320 whole entry, the tested form may be a part): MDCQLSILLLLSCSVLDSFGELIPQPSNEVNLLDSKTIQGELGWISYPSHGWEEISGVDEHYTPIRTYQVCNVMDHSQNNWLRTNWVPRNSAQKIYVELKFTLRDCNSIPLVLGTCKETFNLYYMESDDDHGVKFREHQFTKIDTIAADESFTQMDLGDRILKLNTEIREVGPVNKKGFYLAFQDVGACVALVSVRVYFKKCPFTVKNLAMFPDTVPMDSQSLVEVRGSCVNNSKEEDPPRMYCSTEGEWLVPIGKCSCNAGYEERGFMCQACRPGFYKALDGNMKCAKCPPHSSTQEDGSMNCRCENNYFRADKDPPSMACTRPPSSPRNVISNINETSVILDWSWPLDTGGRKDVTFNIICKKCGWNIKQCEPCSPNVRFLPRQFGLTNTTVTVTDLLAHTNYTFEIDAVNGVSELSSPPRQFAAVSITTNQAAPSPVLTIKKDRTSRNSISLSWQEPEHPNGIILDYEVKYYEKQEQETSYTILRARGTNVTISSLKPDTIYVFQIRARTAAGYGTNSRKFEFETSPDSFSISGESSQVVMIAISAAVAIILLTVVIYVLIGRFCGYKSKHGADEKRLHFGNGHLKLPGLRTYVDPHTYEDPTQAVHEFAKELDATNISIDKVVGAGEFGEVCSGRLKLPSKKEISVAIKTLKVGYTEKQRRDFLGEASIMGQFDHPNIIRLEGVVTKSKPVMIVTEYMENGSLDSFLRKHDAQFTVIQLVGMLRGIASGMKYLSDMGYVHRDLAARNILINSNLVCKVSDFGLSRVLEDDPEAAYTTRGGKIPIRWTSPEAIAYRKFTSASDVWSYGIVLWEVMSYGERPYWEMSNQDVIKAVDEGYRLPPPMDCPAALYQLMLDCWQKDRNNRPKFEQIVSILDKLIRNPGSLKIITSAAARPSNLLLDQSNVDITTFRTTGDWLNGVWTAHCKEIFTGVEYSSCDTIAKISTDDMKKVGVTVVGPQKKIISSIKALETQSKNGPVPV
Chain of Protein-tyrosine kinase 6 (Homo sapiens) (Q13882 whole entry, looked up): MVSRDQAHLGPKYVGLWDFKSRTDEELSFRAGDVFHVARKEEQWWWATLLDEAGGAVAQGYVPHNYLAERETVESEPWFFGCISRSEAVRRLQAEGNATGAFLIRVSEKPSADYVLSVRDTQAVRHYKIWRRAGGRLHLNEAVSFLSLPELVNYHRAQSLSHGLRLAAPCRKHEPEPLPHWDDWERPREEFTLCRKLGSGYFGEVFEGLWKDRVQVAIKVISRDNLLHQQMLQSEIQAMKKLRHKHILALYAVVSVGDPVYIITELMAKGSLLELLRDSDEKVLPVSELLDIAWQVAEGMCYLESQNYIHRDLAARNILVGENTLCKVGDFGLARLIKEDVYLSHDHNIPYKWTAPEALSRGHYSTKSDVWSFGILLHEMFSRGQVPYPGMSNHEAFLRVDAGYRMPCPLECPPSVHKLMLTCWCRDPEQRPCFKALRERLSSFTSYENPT

With `CCN1CCN(Cc2ccc(NC(=O)c3ccc(C)c(Oc4ccnc5[nH]ccc45)c3)cc2C(F)(F)F)CC1`, the inhibition in assay [1] is 4.8%; in assay [2], 28%; in assay [4] it was 3.4%; in assay [6] it was 6.8%. Further, the residual activity in assay [3] was found to be 3%. Also, in assay [5], the inhibition entry was “inactive”.

The record behind these values is ChEMBL document CHEMBL5696442, “Discovery of type II inhibitors of TGFβ-activated kinase 1 (TAK1) and mitogen-activated protein kinase kinase kinase kinase 2 (MAP4K2)” (J Med Chem, 2015).
